From PubChem BioAssay AID248 (DTP/NCI, 2004)
Several values for one entry are separate records, joined by “and”; a condition that tells them apart may be missing. Identical values can stand only once. Inconclusive results and toxic doses are left out.

Tested on: L1210 leukemia ip in BDF1 mice, survival T/C
Experiment: NCI In Vivo Anticancer Drug Screen. Data for tumor model L1210 Leukemia (intraperitoneal) in B6D2F1 (BDF1) mice
Conditions: endpoint: mean survival time, higher = longer survival
Method in brief: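 Antitumor effect is assessed in tumor-bearing animals. Survival in the compound arm is compared with a vehicle-dosed control arm and expressed as their quotient.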

[1] = dose: 25.0 mg/kg/injection, schedule: Q01DX009 (ip), vehicle: saline
[2] = dose: 25.0 mg/kg/injection, schedule: Q04DX003 (ip), vehicle: saline
[3] = dose: 50.0 mg/kg/injection, schedule: Q01DX009 (ip), vehicle: saline
[4] = dose: 50.0 mg/kg/injection, schedule: Q04DX003 (ip), vehicle: saline
[5] = dose: 100.0 mg/kg/injection, schedule: Q01DX009 (ip), vehicle: saline
[6] = dose: 100.0 mg/kg/injection, schedule: Q04DX003 (ip), vehicle: saline
[7] = dose: 50.0 mg/kg/injection, schedule: Q01DX001 (ip), vehicle: saline
[8] = dose: 100.0 mg/kg/injection, schedule: Q01DX001 (ip), vehicle: saline
[9] = dose: 200.0 mg/kg/injection, schedule: Q01DX001 (ip), vehicle: saline
[10] = dose: 100.0 mg/kg/injection, schedule: Q01DX009 (ip), vehicle: Klucel (hydroxypropylcellulose) (HPC)
[11] = dose: 200.0 mg/kg/injection, schedule: Q01DX009 (ip), vehicle: Klucel (hydroxypropylcellulose) (HPC)
[12] = dose: 400.0 mg/kg/injection, schedule: Q01DX009 (ip), vehicle: Klucel (hydroxypropylcellulose) (HPC)
[13] = dose: 100.0 mg/kg/injection, schedule: Q04DX002 (ip), vehicle: Klucel (hydroxypropylcellulose) (HPC)
[14] = dose: 200.0 mg/kg/injection, schedule: Q04DX002 (ip), vehicle: Klucel (hydroxypropylcellulose) (HPC)
[15] = dose: 400.0 mg/kg/injection, schedule: Q04DX002 (ip), vehicle: Klucel (hydroxypropylcellulose) (HPC)
[16] = dose: 100.0 mg/kg/injection, schedule: Q04DX003 (ip), vehicle: Klucel (hydroxypropylcellulose) (HPC)
[17] = dose: 200.0 mg/kg/injection, schedule: Q04DX003 (ip), vehicle: Klucel (hydroxypropylcellulose) (HPC)
[18] = dose: 400.0 mg/kg/injection, schedule: Q04DX003 (ip), vehicle: Klucel (hydroxypropylcellulose) (HPC)
[19] = dose: 100.0 mg/kg/injection, schedule: Q04DX003 (ip), vehicle: saline with Tween-80
[20] = dose: 200.0 mg/kg/injection, schedule: Q04DX003 (ip), vehicle: saline with Tween-80
[21] = dose: 400.0 mg/kg/injection, schedule: Q04DX003 (ip), vehicle: saline with Tween-80

CN1CCN=C(c2ccccc2)c2cc(Cl)ccc21
T/C (dose: 6.25 mg/kg/injection, schedule: Q01DX009 (ip), vehicle: saline): 110 % of control
T/C (dose: 12.5 mg/kg/injection, schedule: Q01DX009 (ip), vehicle: saline): 101 % of control
T/C [1]: 94 % of control
T/C [2]: 93 % of control
T/C [3]: 100 % of control
T/C [4]: 93 % of control
T/C [5]: 95 % of control
T/C [6]: 98 % of control

CCN1CCCCCCCCCC(=N/O)/C(=N\O)C1
T/C [7]: 101 % of control
T/C [8]: 103 % of control
T/C [9]: 95 % of control

CN(C)c1ccc(C=Nc2ccc(Cc3ccncc3)cc2)cc1
T/C [10]: 99 % of control
T/C [11]: 98 % of control
T/C [12]: 100 % of control

COc1cc(-c2ccc(-[n+]3nc(-c4ccc([N+](=O)[O-])cc4)nn3-c3ccc([N+](=O)[O-])cc3)c(OC)c2)ccc1-[n+]1nc(-c2ccc([N+](=O)[O-])cc2)nn1-c1ccc([N+](=O)[O-])cc1
T/C (dose: 15.0 mg/kg/injection, schedule: Q01DX001 (ip), vehicle: carboxymethylcellulose (CMC)): 89 % of control
T/C (dose: 30.0 mg/kg/injection, schedule: Q01DX001 (ip), vehicle: carboxymethylcellulose (CMC)): 104 % of control
T/C (dose: 60.0 mg/kg/injection, schedule: Q01DX001 (ip), vehicle: carboxymethylcellulose (CMC)): 93 % of control

CS(=O)(=O)OCCN(CCOS(C)(=O)=O)c1ccc(C=Nc2ccc(C(=O)O)cc2)cc1
T/C (dose: 2.5 mg/kg/injection, schedule: Q04DX003 (ip), vehicle: Klucel (hydroxypropylcellulose) (HPC)): 114 % of control
T/C (dose: 20.0 mg/kg/injection, schedule: Q04DX003 (ip), vehicle: Klucel (hydroxypropylcellulose) (HPC)): 170 % of control
T/C (dose: 40.0 mg/kg/injection, schedule: Q04DX003 (ip), vehicle: Klucel (hydroxypropylcellulose) (HPC)): 112 % of control

C=CCOCC(O)CN(C)CCCC (centres undefined)
T/C [2]: 101 % of control
T/C (dose: 50.0 mg/kg/injection, schedule: Q01DX009 (ip), vehicle: Klucel (hydroxypropylcellulose) (HPC)): 100 % of control
T/C [4]: 97 % of control
T/C [10]: 94 % of control
T/C [6]: 103 % of control and 91 % of control

COC(=O)c1c(C(=O)N(C)C)n[nH]c1C1OCC2OC(C)(C)OC21 (centres undefined)
T/C (dose: 100.0 mg/kg/injection, schedule: Q01DX005 (ip), vehicle: saline): 100 % of control
T/C (dose: 200.0 mg/kg/injection, schedule: Q01DX005 (ip), vehicle: saline): 100 % of control

O=C(CCl)N(O)c1ccc(/C=C/c2ccccc2)cc1
T/C (dose: 100.0 mg/kg/injection, schedule: Q01DX001 (ip), vehicle: carboxymethylcellulose (CMC)): 90 % of control
T/C (dose: 200.0 mg/kg/injection, schedule: Q01DX001 (ip), vehicle: carboxymethylcellulose (CMC)): 88 % of control
T/C (dose: 400.0 mg/kg/injection, schedule: Q01DX001 (ip), vehicle: carboxymethylcellulose (CMC)): 95 % of control

O=C1c2ccccc2C(=O)N1c1ncc2ccccc2n1
T/C (dose: 100.0 mg/kg/injection, schedule: Q01DX001 (ip), vehicle: saline with Tween-80): 101 % of control
T/C (dose: 200.0 mg/kg/injection, schedule: Q01DX001 (ip), vehicle: saline with Tween-80): 92 % of control
T/C (dose: 400.0 mg/kg/injection, schedule: Q01DX001 (ip), vehicle: saline with Tween-80): 95 % of control

CSc1ccc(OC(=O)Nc2cccc3ccccc23)cc1C
T/C [13]: 101 % of control
T/C [14]: 101 % of control
T/C [15]: 104 % of control

C=C(Cl)CSc1ncnc2nc[nH]c12
T/C (dose: 75.0 mg/kg/injection, schedule: Q01DX001 (ip), vehicle: saline): 98 % of control

O=C(CC(=O)c1ccccc1)Cc1ccccc1.O=C(CC(=O)c1ccccc1)Cc1ccccc1.[Cu]
T/C [16]: 94 % of control
T/C [17]: 97 % of control
T/C [18]: 104 % of control

CCOC(=O)C(Cc1ccccc1)N=NNc1nc[nH]c1C(N)=O (centres undefined)
T/C (dose: 375.0 mg/kg/injection, schedule: Q01DX001 (ip), vehicle: carboxymethylcellulose (CMC)): 96 % of control
T/C (dose: 500.0 mg/kg/injection, schedule: Q01DX001 (ip), vehicle: carboxymethylcellulose (CMC)): 106 % of control

O=C1Cc2cccc(=O)c(O)c2C(=O)O1
T/C [1]: 97 % of control and 90 % of control
T/C [3]: 97 % of control and 92 % of control
T/C [5]: 96 % of control and 89 % of control
T/C [6]: 111 % of control and 100 % of control
T/C (dose: 200.0 mg/kg/injection, schedule: Q04DX003 (ip), vehicle: saline): 97 % of control
T/C (dose: 400.0 mg/kg/injection, schedule: Q04DX003 (ip), vehicle: saline): 89 % of control

c1ccc(C(N2CCN(c3ccccc3)CC2)N2CCN(c3ccccc3)CC2)cc1
T/C [13]: 94 % of control
T/C [14]: 94 % of control
T/C [15]: 94 % of control

C#CC(=O)CCCCCCl
T/C (dose: 6.25 mg/kg/injection, schedule: Q01DX009 (sc), vehicle: olive oil, sesame oil, peanut oil): 100 % of control
T/C (dose: 12.5 mg/kg/injection, schedule: Q01DX009 (sc), vehicle: olive oil, sesame oil, peanut oil): 94 % of control
T/C (dose: 12.5 mg/kg/injection, schedule: Q04DX002 (sc), vehicle: olive oil, sesame oil, peanut oil): 103 % of control
T/C (dose: 25.0 mg/kg/injection, schedule: Q01DX009 (sc), vehicle: olive oil, sesame oil, peanut oil): 97 % of control
T/C (dose: 25.0 mg/kg/injection, schedule: Q04DX002 (sc), vehicle: olive oil, sesame oil, peanut oil): 95 % of control

COc1ccc([N+](=O)[O-])cc1NS(=O)(=O)c1ccc(C)cc1
T/C (dose: 50.0 mg/kg/injection, schedule: Q04DX003 (ip), vehicle: saline with Tween-80): 95 % of control
T/C [19]: 94 % of control and 90 % of control
T/C [20]: 86 % of control and 92 % of control
T/C [21]: 92 % of control

Clc1ccc(Cl)c(N=NNc2cc(Cl)ccc2Cl)c1
T/C (dose: 100.0 mg/kg/injection, schedule: Q01DX009 (ip), vehicle: saline with Tween-80): 101 % of control
T/C [19]: 98 % of control
T/C (dose: 200.0 mg/kg/injection, schedule: Q01DX009 (ip), vehicle: saline with Tween-80): 101 % of control
T/C [20]: 101 % of control
T/C (dose: 400.0 mg/kg/injection, schedule: Q01DX009 (ip), vehicle: saline with Tween-80): 103 % of control
T/C [21]: 96 % of control

CC(=O)OCCN1C(=O)CN=C(c2ccccn2)c2cc(Cl)ccc21
T/C [10]: 99 % of control
T/C [16]: 100 % of control
T/C [11]: 102 % of control
T/C [17]: 101 % of control
T/C [12]: 94 % of control
T/C [18]: 97 % of control

C=CC(=O)c1c(O)cc(O)c2c1C(C)C(=O)O2 (centres undefined)
T/C [7]: 104 % of control
T/C (dose: 75.0 mg/kg/injection, schedule: Q01DX009 (ip), vehicle: Klucel (hydroxypropylcellulose) (HPC)): 89 % of control
T/C [8]: 101 % of control
T/C [16]: 106 % of control
T/C [9]: 104 % of control

Cc1ccc(C(=O)C(C)(C)C)c(C)c1
T/C [5]: 97 % of control
T/C (dose: 200.0 mg/kg/injection, schedule: Q01DX009 (ip), vehicle: saline): 97 % of control
T/C (dose: 400.0 mg/kg/injection, schedule: Q01DX009 (ip), vehicle: saline): 93 % of control

CC(C)CC(CC(C)C)NCCOC(=O)c1ccc(N)cc1
T/C (dose: 75.0 mg/kg/injection, schedule: Q01DX001 (ip), vehicle: other): 106 % of control
T/C (dose: 150.0 mg/kg/injection, schedule: Q01DX001 (ip), vehicle: other): 103 % of control

COc1ccc(C2=CN(S(=O)(=O)c3ccc(C)cc3)CCc3ccccc32)cc1
T/C [16]: 96 % of control
T/C [17]: 102 % of control
T/C [18]: 92 % of control

CCOC(=O)C(NC(=O)NS(=O)(=O)c1ccc(C)cc1)C(=O)OCC
T/C (dose: 100.0 mg/kg/injection, schedule: Q01DX001 (ip), vehicle: Klucel (hydroxypropylcellulose) (HPC)): 91 % of control
T/C (dose: 200.0 mg/kg/injection, schedule: Q01DX001 (ip), vehicle: Klucel (hydroxypropylcellulose) (HPC)): 92 % of control
T/C (dose: 400.0 mg/kg/injection, schedule: Q01DX001 (ip), vehicle: Klucel (hydroxypropylcellulose) (HPC)): 91 % of control

CC1(C)C=C(C(Br)c2cccc(Cl)c2)C(=O)c2ccccc21 (centres undefined)
T/C [10]: 101 % of control
T/C [16]: 109 % of control
T/C [11]: 104 % of control
T/C [17]: 106 % of control
T/C [12]: 106 % of control
T/C [18]: 104 % of control
